In PubChem BioAssay (NCI):
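How tested: cells in 96-well plates exposed to compound for 48 hours at five concentrations. At the TGI there is no net growth.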

Columns and labels:
Test in all cases: NCI-60 cell line screen, 48 h
[1] = test system: 786-0 renal
[2] = test system: A498 renal
[3] = test system: A549 NSCLC
[4] = test system: ACHN renal
[5] = test system: BT-549 breast
[6] = test system: CAKI-1 renal
[7] = test system: CCRF-CEM leukemia
[8] = test system: COLO 205 colon
[9] = test system: DU-145 prostate
[10] = test system: EKVX NSCLC
[11] = test system: HCC-2998 colon
[12] = test system: HCT-116 colon
[13] = test system: HCT-15 colon
[14] = test system: HL-60(TB) leukemia
[15] = test system: HOP-62 NSCLC
[16] = test system: HOP-92 NSCLC
[17] = test system: HS 578T breast
[18] = test system: HT29 colon
[19] = test system: IGROV1 ovarian
[20] = test system: K-562 leukemia
[21] = test system: KM12 colon
[22] = test system: LOX IMVI melanoma
[23] = test system: M14 melanoma
[24] = test system: MCF7 breast
[25] = test system: MDA-MB-231 breast
[26] = test system: MDA-MB-435
[27] = test system: MDA-N
[28] = test system: MOLT-4 leukemia
[29] = test system: NCI-H226 lung
[30] = test system: NCI-H23 lung
[31] = test system: NCI-H460 lung
[32] = test system: NCI-H522 lung
[33] = test system: NCI/ADR-RES ovarian
[34] = test system: OVCAR-3 ovarian
[35] = test system: OVCAR-4 ovarian
[36] = test system: OVCAR-5 ovarian
[37] = test system: OVCAR-8 ovarian
[38] = test system: PC-3 prostate
[39] = test system: RPMI-8226 leukemia
[40] = test system: RXF 393 renal
[41] = test system: SF-268 CNS
[42] = test system: SF-295 CNS
[43] = test system: SF-539 CNS
[44] = test system: SK-MEL-2 melanoma
[45] = test system: SK-MEL-28 melanoma
[46] = test system: SK-MEL-5 melanoma
[47] = test system: SK-OV-3 ovarian
[48] = test system: SN12C renal
[49] = test system: SNB-19 CNS
[50] = test system: SNB-75 CNS
[51] = test system: SR leukemia
[52] = test system: SW-620 colon
[53] = test system: T-47D breast
[54] = test system: TK-10 renal
[55] = test system: U251 CNS
[56] = test system: UACC-257 melanoma
[57] = test system: UACC-62 melanoma
[58] = test system: UO-31 renal

**Q.** Which results are given for `CCCCCCc1ccc(C(=O)NO)cc1`?
**A.** TGI [1]: 46.6 µM; TGI [2]: 81.7 µM; TGI [3]: > 100 µM; TGI [4]: 88.5 µM; TGI [5]: > 100 µM; TGI [6]: 84.3 µM; TGI [7]: 52.8 µM; TGI [8]: > 100 µM; TGI [9]: 68.4 µM; TGI [10]: > 100 µM; TGI [11]: > 100 µM; TGI [12]: > 100 µM; TGI [13]: > 100 µM; TGI [14]: 53.8 µM; TGI [15]: > 100 µM; TGI [16]: > 100 µM; TGI [17]: > 100 µM; TGI [18]: > 100 µM; TGI [19]: > 100 µM; TGI [20]: > 100 µM; TGI [21]: > 100 µM; TGI [22]: 76.9 µM; TGI [23]: > 100 µM; TGI [24]: > 100 µM; TGI [25]: > 100 µM; TGI [26]: > 100 µM; TGI [27]: > 100 µM; TGI [28]: 50 µM; TGI [29]: > 100 µM; TGI [30]: > 100 µM; TGI [31]: 72.3 µM; TGI [32]: 80.4 µM; TGI [33]: 51.9 µM; TGI [34]: > 100 µM; TGI [35]: 84.4 µM; TGI [36]: > 100 µM; TGI [37]: 35.6 µM; TGI [38]: > 100 µM; TGI [39]: 56.8 µM; TGI [40]: > 100 µM; TGI [41]: > 100 µM; TGI [42]: > 100 µM; TGI [43]: > 100 µM; TGI [44]: > 100 µM; TGI [45]: > 100 µM; TGI [46]: > 100 µM; TGI [47]: > 100 µM; TGI [48]: 64.5 µM; TGI [49]: > 100 µM; TGI [50]: > 100 µM; TGI [51]: 39.2 µM; TGI [52]: > 100 µM; TGI [53]: 82.9 µM; TGI [54]: > 100 µM; TGI [55]: > 100 µM; TGI [56]: > 100 µM; TGI [57]: 66.6 µM; TGI [58]: 48.7 µM
